How the values were obtained:
[1] = target: T1, Aβ42-α7 nAChR complexes (Homo sapiens, UniProt P36544); assay: Inhibition of formation of Aβ42-α7 nAChR complexes in post-mortem frontal cortex synaptosomes (immunoprecipitation, Western blot); type: binding; conditions: S 24795 30 μM added before Aβ peptides (Aβ42 100 nM); non-diseased control human cortex synaptosomes
T1 construct: dissociation of the complexes already present in the diseased human tissues; tissue Harvard Brain Tissue Resource Center and Analytical Biological Services; host or cells: post-mortem frontal cortex synaptosomes of Alzheimer's disease patients
Description: FIG. 1: Western blot illustrating the inhibition, by S 24795, of Aβ42-α7 nAChR complexes obtained post-mortem from frontal cortex synaptosomes of Alzheimer's disease patients or control subjects. The Aβ42-α7 nAChR complexes are incubated in the medium (Krebs-Ringer) on its own or in the presence of S 24795 (30 μM) for 10 minutes, followed by incubation in the presence of Aβ42 peptide for 30 minutes.
FIG. 2: Quantification of the inhibition of the formation of Aβ42-α7 nAChR complexes in human frontal cortex synaptosomes obtained post-mortem from Alzheimer's disease patients and control subjects and incubated with S 24795 (30 μM)—or not—and then with Aβ42 peptides (100 nM). *: p<0.01 for controls and Alzheimer's disease patients, Newman-Keuls test for multiple comparisons.
(§1) 100 mg of post-mortem frontal cortex ground on ice are homogenised in 10 volumes of 10 mM HEPES pH 7.4 maintained on ice and oxygenated in the presence of […] sucrose and 0.1 mM EDTA and then mixed in a Teflon/glass tissue grinder at 4° C. in a homogenisation solution containing 25 mM HEPES pH 7.5, 1 mM EDTA, 50 μg/ml of leupeptin, 10 μg/ml of aprotinin, 2 μg/ml of soy trypsin inhibitor, 0.04 mM PMSF, a mixture of phosphatase inhibitor proteins, and 0.2% […].
The homogenate is centrifuged, firstly, at 1000 g and 4° C. for 10 minutes. […]

[2] = target: T1, Aβ42-α7 nAChR complexes; assay: Dissociation of Aβ42-α7 nAChR complexes already present in frontal cortex synaptosomes of Alzheimer's disease patients (immunoprecipitation, Western blot); type: binding
Description: FIG. 3: Western blot illustrating the dissociation, caused by S 24795, of Aβ42-α7 nAChR complexes obtained post-mortem from frontal cortex synaptosomes of Alzheimer's disease patients or control subjects. The Aβ42-α7 nAChR complexes are incubated in the medium (Krebs-Ringer) on its own or in the presence of S 24795 (1, 10, 30 or 100 μM) for 10 minutes and then in the presence or absence of Aβ42 (100 nM).
FIG. 4: Quantification of the dissociation of the interaction of α7 nAChR receptors associated with Aβ42 in human frontal cortex synaptosomes obtained post-mortem from Alzheimer's disease patients and control subjects and incubated with S 24795 (from 1 to 100 μM) and then in the presence or absence of Aβ42 (100 nM). *: p<0.01 for controls and Alzheimer's disease patients, Newman-Keuls test for multiple comparisons.
as §1
The homogenate is centrifuged, firstly, at 1000 g and 4° C. for 10 minutes. The supernatant obtained in that first centrifugation is centrifuged for a second time at 15000 g for 30 minutes to obtain a sediment of synaptosomes.
The sediment of synaptosomes is washed twice by suspension in 10 ml of Krebs-Ringer solution, maintained on ice, comprising 25 mM HEPES pH 7.4, 118 mM NaCl, 4.8 mM KCl, 25 mM NaHCO3, 1.3 mM CaCl2, 1.2 mM MgSO4, 1.2 mM KH2PO4, 10 mM glucose, 100 μM ascorbic acid, 50 μg/ml of leupeptin, 10 μg/ml of aprotinin, 2 μg/ml of soy trypsin inhibitor, 0.04 mM PMSF and a mixture of phosphatase inhibitor proteins, aerated for 10 minutes using 95% O2/5% CO2 and then centrifuged again at 15000 g for 10 minutes at 4° C. The washed synaptosomes are then suspended in 1 ml of oxygenated Krebs-Ringer solution and the protein concentration of said synaptosome suspension is determined by the Bradford method.
The human cortex synaptosomes are incubated in an oxygenated Krebs-Ringer solution in the presence of the compound S 24795 at 37° C. for 30 minutes in a total incubation volume of 500 μl. The compound S 24795 is present in the reaction mixture at a concentration of 1 μM, 10 μM, 30 μM or 100 μM. Depending on the experiments being carried out, the synaptosomes are also incubated in the presence of 100 nM Aβ42 or in the presence of the vehicle. […]

[3] = tested on: α7 nAChR and NMDAR; assay: Functional recovery: 45Ca2+ entry into frontal cortex synaptosomes via α7 and NMDA receptors; type: biochemical, human
Description: FIG. 5: Quantification of the entry of ^45Ca^2+ into human frontal cortex synaptosomes obtained post-mortem from Alzheimer's disease patients and from control subjects and treated with S 24795. The control brain slices are incubated in the presence of Aβ42 (1 μM)—or not—prior to the treatment with S 24795 (10 μM). Calcium entry is brought about either by α7 agonist (PNU282987) or by NMDA added to glycine.
The functional recovery experiments are carried out using brains according to I.2 obtained from patients according to I.1.
The functional recovery brought about by the treatment with S 24795 (10 μM) is evaluated with reference to the calcium influx via α7 and NMDA receptors. It was tested after 1 hour of treatment with S 24795 on control brains exposed to Aβ42 (30 minutes) and on brains of Alzheimer's disease patients. The treatments using Aβ42 (1 μM) and S 24795 (10 μM) are carried out on slices of cortex obtained from those brains. Synaptosomes are then prepared as described in I.4. In order to evaluate the Ca^2+ influxes via the α7 and NMDA receptors, the synaptosomes are incubated in the presence of ^45Ca^2+ (5 μM) for 5 minutes at 37° C. in Krebs-Ringer medium. The Ca^2+ fluxes are brought about for α7 selective α7nAChR receptor agonist, PNU282987 (0.1, 1 and 10 μM), and for the NMDAR receptors by the addition of NMDA (0.1, 1, 10 μM) and glycine (1 μM). The reaction is stopped by the addition of Krebs-Ringer (4° C.) containing EGTA but not containing calcium. After two washings, the synaptosomes are lysed by sonication in ethanol (95%) and the radioactivity is counted by liquid scintillation spectrometry. The specificity of the calcium influxes is checked by means of the addition of selective inhibitors of the α7 receptor (α-bungarotoxin) and of the NMDA receptor (AP-5).

T1 sequence (P36544 23-502, one chain of several): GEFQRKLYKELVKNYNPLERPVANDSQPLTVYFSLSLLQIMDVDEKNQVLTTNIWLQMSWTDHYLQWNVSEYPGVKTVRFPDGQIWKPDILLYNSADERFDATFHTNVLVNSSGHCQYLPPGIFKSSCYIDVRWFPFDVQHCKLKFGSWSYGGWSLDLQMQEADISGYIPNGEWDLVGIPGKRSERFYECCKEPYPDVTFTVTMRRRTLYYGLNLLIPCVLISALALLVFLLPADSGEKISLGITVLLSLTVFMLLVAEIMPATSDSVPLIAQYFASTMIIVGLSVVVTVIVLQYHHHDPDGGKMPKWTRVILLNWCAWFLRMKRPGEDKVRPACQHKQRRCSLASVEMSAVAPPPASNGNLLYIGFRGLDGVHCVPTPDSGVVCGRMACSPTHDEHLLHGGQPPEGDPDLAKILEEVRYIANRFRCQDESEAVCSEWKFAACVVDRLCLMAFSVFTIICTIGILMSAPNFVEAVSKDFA

1-(4-bromophenyl)-2-(1-methyl-2-pyridiniumyl)-1-ethanone chloride or iodide [S 24795]
reduction of the amount of Aβ42-α7 nAChR complexes formed [1]: 92%
reduction in the Aβ42-α7 nAChR complexes previously present in the diseased brain extracts ([2]; S 24795 1 μM, absence of exogenous Aβ peptides, Alzheimer's disease synaptosomes): about 22%
reduction in the Aβ42-α7 nAChR complexes previously present in the diseased brain extracts ([2]; S 24795 10, 30 and 100 μM, absence of exogenous Aβ peptides, dose-dependent): substantial
reduction of non-dissociated Aβ42-α7 nAChR complexes ([2]; S 24795 at the highest concentration (100 μM), absence of exogenous Aβ peptides, Alzheimer's disease synaptosomes, p<0.01): ~63%
reduction in the amount of Aβ42-α7 nAChR complexes present in the diseased brains ([2]; synaptosomes from cortices of Alzheimer's disease patients, S 24795 30 μM, Aβ peptides added (FIG. 1)): substantial reduction
Ca2+ entry level as % of the control values without Aβ ([3]; after S 24795 10 μM, brains of Alzheimer's disease patients and of controls pretreated with Aβ (comparable levels)): about 65%
increase in Ca2+ entry compared to the brains of untreated Alzheimer's disease patients ([3]; brains of Alzheimer's disease patients, S 24795 10 μM for 1 hour): ~75%
re-establishment of Ca2+ entry ([3]; control brain slices exposed to Aβ42 (1 μM), then S 24795 10 μM for 1 hour): substantial re-establishment

From patent US20100197740A1, “Method of Screening Compounds Having Anti-Amyloid Properties” (LES LABORATOIRES SERVIER, priority 2006, published 2010)
